This passage reports IC50 results from US20260125359A1, “HETEROARYL COMPOUNDS AS MULTI-TARGET PROTEIN KINASE INHIBITORS” (FUJIAN HAIXI PHARMACEUTICALS CO., LTD., priority 2023, published 2026).

This test deals with M-NFS-60 cells. The test can be described thus: M-NFS-60 cell in vitro assay (CCK, 48 h, M-CSF factor medium). It is filed as cell-based. Conditions: M-NFS-60 cells; read-out: M-NFS-60cellassay IC50. An outline of the steps: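 IC50 values were fitted from CCK absorbance (450 nm, 2 h development) after 48 h compound treatment. Cells: M-NFS-60, seeded 2000/well and rested 4 h, grown in medium carrying 25 ng/ml M-CSF factor plus 10% serum; compounds serially diluted in DMSO.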
As to `Cc1c(Nc2cccc3c2CC[C@@H]3Nc2cncc(Cl)c2)noc1C(C)(C)C` [Compound 40d, (S)—N^4-(5-(ter-butyl)-4-methylisoxazol-3-yl)-N^1-(5-chloropyridin-3-yl)-2,3-dihydro-1H-indene-1,4-diamine], the IC50 is 0.05 to 0.2 µM. Next, `CC(C)(C)c1cc(Nc2cccc3c2CC[C@@H]3Nc2cncc(Cl)c2)no1` [Compound 42a]: 0.05 to 0.2 µM; `CC(C)c1cc(Nc2cccc3c2CC[C@@H]3Nc2cncc(Cl)c2)no1` [Compound 42b]: 0.05 to 0.2 µM.

For the molecule `CC(C)(CO)c1cc(Nc2cccc3c2CC[C@@H]3Nc2cncc(Cl)c2)no1` [Compound 42c], the IC50 is less than 0.05 µM. With `Cn1nc(Nc2cccc3c2CC[C@@H]3Nc2cncc(Cl)c2)cc1C(F)(F)F` [Compound 42d] the figure was more than 0.5 µM.

As to `CC(C)(C)c1cc(Nc2cccc3c2CC[C@@H]3Nc2cncc(Cl)c2)n[nH]1` [Compound 42e], the IC50 is more than 0.5 µM.

For `Clc1cncc(N[C@H]2CCc3c(Nc4nc5c(s4)CCCC5)cccc32)c1` [Compound 42f], the IC50 is more than 0.5 µM. Next, `CN1CCc2nc(Nc3cccc4c3CC[C@@H]4Nc3cncc(Cl)c3)sc2C1` [Compound 42g]: more than 0.5 µM; `CC(C)(C)c1ccnc(Nc2cccc3c2CC[C@@H]3Nc2cncc(Cl)c2)n1` [Compound 42h]: more than 0.5 µM; `CC(C)(C)c1nnc(Nc2cccc3c2CC[C@@H]3Nc2cncc(Cl)c2)s1` [Compound 42i]: 0.05 to 0.2 µM. With `Clc1cncc(N[C@H]2CCc3c(Nc4noc5ccccc45)cccc32)c1` [Compound 42j] the figure was more than 0.5 µM; with `Cn1cc(-c2cncc(N[C@H]3CCc4c(Nc5nc(C(C)(C)C)no5)cccc43)c2)cn1` [Compound 42k], 0.2 to 0.5 µM; with `Cn1cc(-c2cncc(N[C@H]3CCc4c(Nc5nnc(C(C)(C)C)o5)cccc43)c2)cn1` [Compound 42l], more than 0.5 µM. Next, `Cn1cc(-c2cncc(N[C@H]3CCc4c(Nc5ncc(C(C)(C)C)s5)cccc43)c2)cn1` [Compound 42m]: 0.05 to 0.2 µM.

On to `Cn1cc(-c2cncc(N[C@H]3CCc4c(Nc5cc(C(C)(C)C)no5)cccc43)c2)cn1` [Compound 42n], for which the IC50 fell in the range of 0.05 to 0.2 µM. With `Cn1cc(-c2cncc(N[C@H]3CCc4c(Nc5cc(C(C)(C)C(F)(F)F)on5)cccc43)c2)cn1` [Compound 42p] the figure was less than 0.05 µM. With `Cn1cc(-c2cncc(N[C@H]3CCc4c(Nc5cc(C(F)(F)F)nn5C)cccc43)c2)cn1` [Compound 42q] the figure was more than 0.5 µM; with `Cn1cc(-c2cncc(N[C@H]3CCc4c(Nc5cc(-c6ccccc6)on5)cccc43)c2)cn1` [Compound 42r], 0.05 to 0.2 µM; with `Cn1cc(-c2cncc(N[C@H]3CCc4c(Nc5cc(C(C)(C)C)on5)ccc(F)c43)c2)cn1` [Compound 42s], less than 0.05 µM. With `Cn1cc(-c2cncc(N[C@H]3CCc4c(Nc5nc(C(C)(C)C)cs5)ccc(F)c43)c2)cn1` [Compound 42t] the figure was 0.05 to 0.2 µM; with `Cc1cccc(C(=O)Nc2cc(F)cc3c2CCC3Nc2cncc(-c3cnn(C)c3)c2)c1` (stereo not shown) [Compound 44a], 0.05 to 0.2 µM; with `Cc1cccc(C(=O)Nc2ccc(F)c3c2CCC3Nc2cncc(-c3cnn(C)c3)c2)c1` (stereo not shown) [Compound 44b], less than 0.05 µM. On to `Cc1cccc(C(=O)Nc2cccc3c2CC(F)C3Nc2cncc(-c3cnn(C)c3)c2)c1` (stereo not shown) [Compound 44c], for which the IC50 was in the range of 0.05 to 0.2 µM. Next, `Cn1cc(-c2cncc(NC3CCc4c(NC(=O)c5cccc(C6CC6)c5)ccnc43)c2)cn1` (stereo not shown) [Compound 44e]: 0.2 to 0.5 µM; `Cc1cccc(C(=O)Nc2ccc(F)c3c2CC[C@@H]3Nc2cncc(-c3cnn(C)c3)c2)c1` [Compound 45, (S)—N-(7-fluoro-1-((5-(1-methyl-1H-pyrazol-4-yl)pyridin-3-yl)amino)-2,3-dihydro-1H-inden-4-yl)-3-methylbenzamide]: less than 0.05 µM.

Regarding `Cc1cccc(C(=O)Nc2cc(F)cc3c2CC[C@@H]3Nc2cncc(-c3cnn(C)c3)c2)c1` [Compound 46a], the IC50 is less than 0.05 µM. Next, `Cc1cccc(C(=O)Nc2c(F)ccc3c2CC[C@@H]3Nc2cncc(-c3cnn(C)c3)c2)c1` [Compound 46b]: 0.05 to 0.2 µM; `Cn1cc(-c2cncc(N[C@H]3CCc4c(NC(=O)c5cccc(C6CC6)c5)ccc(F)c43)c2)cn1` [Compound 46c]: less than 0.05 µM. Next, `Cn1cc(-c2cncc(N[C@H]3CCc4c(NC(=O)c5cccc(C(F)(F)F)c5)ccc(F)c43)c2)cn1` [Compound 46d]: less than 0.05 µM.

Take `Cn1cc(-c2cncc(NC3COc4c(NC(=O)c5ccc(C(F)(F)F)cc5)cccc43)c2)cn1` (stereo not shown) [Compound 47, N-(3-((5-(1-methyl-1H-pyrazol-4-yl)pyridin-3-yl)amino)-2,3-dihydrobenzofuran-7-yl)-4-(trifluoromethyl)benzamide]: the IC50 lay within 0.05 to 0.2 µM.

For the molecule `Cn1cc(-c2cncc(NC3CCc4c(Nc5cc(C(C)(C)C)on5)cccc43)c2)cn1` (stereo not shown) [Compound 48, N^4-(5-(tert-butyl)isoxazol-3-yl)-N^1-(5-(1-methyl-1H-pyrazol-4-yl)pyridin-3-yl)-2,3-dihydro-1H-indene-1,4-diamine], the IC50 is less than 0.05 µM. Consider `CN(c1cncc(-c2cnn(C)c2)c1)[C@H]1CCc2c(Nc3cc(C(C)(C)C)on3)cccc21` [Compound 49, (S)—N^4-(5-(tert-butyl)isoxazol-3-yl)-N^1-methyl-N1-(5-(1-methyl-1H-pyrazol-4-yl)pyridin-3-yl)-2,3-dihydro-1H-indene-1,4-diamine], for which the IC50 was more than 0.5 µM.

With `Cn1cc(-c2cncc(N[C@H]3CCc4c(C(=O)Nc5cccc(C6CC6)c5)ccc(F)c43)c2)cn1` [Compound 50, (S)—N-(3-cyclopropylphenyl)-7-fluoro-1-((5-(1-methyl-1H-pyrazol-4-yl)pyridin-3-yl)amino)-2,3-dihydro-1H-indene-4-carboxamide], the IC50 was less than 0.05 µM. With `Cn1cc(-c2cncc(N[C@H]3CCc4c3ccc(F)c4C(=O)Nc3cccc(C4CC4)c3)c2)cn1` [Compound 51a] the figure was less than 0.05 µM; with `Cn1cc(-c2cncc(N[C@H]3CCc4c(C(=O)Nc5cccc(C6CC6)c5)cc(F)cc43)c2)cn1` [Compound 51b], less than 0.05 µM.

Consider `CN(c1cncc(-c2cnn(C)c2)c1)[C@H]1CCc2c(C(=O)Nc3cccc(C4CC4)c3)cc(F)cc21` [Compound 52, (S)—N-(3-cyclopropylphenyl)-6-fluoro-1-(methyl (5-(1-methyl-1H-pyrazol-4-yl)pyridin-3-yl)amino)-2,3-dihydro-1H-indene-4-carboxamide], for which the IC50 was less than 0.05 µM.

Consider `Cn1cc(-c2cncc(O[C@H]3CCc4c3ccc(F)c4C(=O)Nc3cccc(C4CC4)c3)c2)cn1` [Compound 53, (S)—N-(3-cyclopropylphenyl)-5-fluoro-1-((5-(1-methyl-1H-pyrazol-4-yl)pyridin-3-yl)oxy)-2,3-dihydro-1H-indene-4-carboxamide], for which the IC50 lay within 0.05 to 0.2 µM.

Turning to `Cn1cc(-c2cncc(N[C@H]3CCc4c(C(=O)Nc5cccc(C6CC6)c5)ccnc43)c2)cn1` [Compound 55, (S)—N-(3-cyclopropylphenyl)-7-((5-(1-methyl-1H-pyrazol-4-yl)pyridin-3-yl)amino)-6,7-dihydro-5H-cyclopenta[b]pyridine-4-carboxamide], the IC50 lay within 0.2 to 0.5 µM. With `Cn1cc(-c2cc(O[C@H]3CCc4c(C(=O)Nc5ccc(C(F)(F)F)cc5)cccc43)ccn2)cn1` [Compound 56, (S)-1-((2-(1-methyl-1H-pyrazol-4-yl)pyridin-4-yl)oxy)-N-(4-(trifluoromethyl)phenyl)-2,3-dihydro-1H-indene-4-carboxamide] the figure was more than 0.5 µM; with `Cn1cc(-c2cc(N[C@H]3CCc4c(C(=O)Nc5cccc(C6CC6)c5)cccc43)ccn2)cn1` [Compound 57, (S)—N-(3-cyclopropylphenyl)-1-((2-(1-methyl-1H-pyrazol-4-yl)pyridin-4-yl)amino)-2,3-dihydro-1H-indene-4-carboxamide], more than 0.5 µM; with `Cn1cc(-c2cncc(N[C@H]3CCc4c(CNc5ccc(C(F)(F)F)cc5)cccc43)c2)cn1` [Compound 58, (S)-5-(1-methyl-1H-pyrazol-4-yl)-N-(4-(((4-(trifluoromethyl)phenyl)amino)methyl)-2,3-dihydro-1H-inden-1-yl) pyridin-3-amine], more than 0.5 µM. Next, `COc1ccc(NCc2cccc3c2CC[C@@H]3Nc2cncc(-c3cnn(C)c3)c2)cc1` [Compound 59a]: 0.2 to 0.5 µM. With `Cn1cc(-c2cncc(N[C@H]3CCc4c(CNc5cccc(C6CC6)c5)cccc43)c2)cn1` [Compound 59b] the figure was 0.2 to 0.5 µM. With `Cn1cc(-c2cncc(N[C@H]3CCc4c(CNc5cccc(C(F)(F)F)c5)cccc43)c2)cn1` [Compound 59c], the IC50 is more than 0.5 µM. With `Cc1cccc(NCc2cccc3c2CC[C@@H]3Nc2cncc(-c3cnn(C)c3)n2)c1` [Compound 59d] the figure was 0.2 to 0.5 µM; with `Cn1cc(-c2cncc(N[C@H]3CCc4c(CNc5ccccc5F)cccc43)n2)cn1` [Compound 59e], more than 0.5 µM. Next, `Cn1cc(-c2cncc(N[C@H]3CCc4c(CNC5CCCCC5)cccc43)n2)cn1` [Compound 59f]: more than 0.5 µM. With `Cn1cc(-c2cncc(N[C@H]3CCc4c(NC5CCCCC5)cccc43)n2)cn1` [Compound 60a] the figure was more than 0.5 µM. For the molecule `Cn1cc(-c2cncc(N[C@H]3CCc4c(NCC5CCCCC5)cccc43)n2)cn1` [Compound 60b], the IC50 is more than 0.5 µM.

On to `Cn1cc(-c2cncc(N[C@H]3CCc4c(NCc5cccc(Cl)c5)cccc43)n2)cn1` [Compound 60c], for which the IC50 is more than 0.5 µM. Next, `Cn1cc(-c2cncc(N[C@H]3CCc4c(NCc5cccc(F)c5)cccc43)n2)cn1` [Compound 60d]: more than 0.5 µM. With `Cc1cncc(CNc2cccc3c2CC[C@@H]3Nc2cncc(-c3cnn(C)c3)n2)c1` [Compound 60e] the figure was more than 0.5 µM.

Broadly, the IC50 is the concentration needed to halve the response being measured.
